Measured values as given in ChEMBL document CHEMBL1201862, “PubChem BioAssay data set” (2004).
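Each compound was tested at five concentrations against cells in 96-well plates for 48 hours. GI50: concentration for 50% inhibition of growth.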 The source made the active and inactive calls. Cut-off read from the data, not from the text of the source: active = GI50 up to about 1.1 µM and inactive = higher.

Key:
Assay in all cases: DTP human tumour cell line panel, 48 h
786-0 = test system: 786-0
A498 = test system: A498
A549 = test system: A549
ACHN = test system: ACHN
CAKI-1 = test system: CAKI-1
CCRF-CEM = test system: CCRF-CEM
COLO 205 = test system: COLO 205
DLD-1 = test system: DLD-1
DMS-114 = test system: DMS-114
DMS-273 = test system: DMS-273
EKVX = test system: EKVX
HCC 2998 = test system: HCC 2998
HCT-116 = test system: HCT-116
HCT-15 = test system: HCT-15
HL-60 = test system: HL-60
HOP-18 = test system: HOP-18
HT-29 = test system: HT-29
IGROV-1 = test system: IGROV-1
K562 = test system: K562
KM-20L2 = test system: KM-20L2
KM12 = test system: KM12
LOX IMVI = test system: LOX IMVI
LXFL 529 = test system: LXFL 529
M14 = test system: M14
M19-MEL = test system: M19-MEL
MOLT-4 = test system: MOLT-4
Malme-3M = test system: Malme-3M
NCI-H226 = test system: NCI-H226
NCI-H23 = test system: NCI-H23
NCI-H460 = test system: NCI-H460
OVCAR-3 = test system: OVCAR-3
OVCAR-4 = test system: OVCAR-4
OVCAR-5 = test system: OVCAR-5
OVCAR-8 = test system: OVCAR-8
RPMI-8226 = test system: RPMI-8226
RXF 393 = test system: RXF 393
SF-268 = test system: SF-268
SF-295 = test system: SF-295
SF-539 = test system: SF-539
SK-MEL-28 = test system: SK-MEL-28
SK-MEL-2 = test system: SK-MEL-2
SK-MEL-5 = test system: SK-MEL-5
SK-OV-3 = test system: SK-OV-3
SN12C = test system: SN12C
SNB-19 = test system: SNB-19
SNB-75 = test system: SNB-75
SNB-78 = test system: SNB-78
SW-620 = test system: SW-620
TK-10 = test system: TK-10
U-251 = test system: U-251
UACC-257 = test system: UACC-257
UACC-62 = test system: UACC-62
UO-31 = test system: UO-31
XF498 = test system: XF498
HOP-62 = test system: HOP-62
NCI-H522 = test system: NCI-H522
SR = test system: SR

## COc1ccc(C(=O)C/C(=N/NC(N)=S)C(=O)Nc2ccccc2)cc1
786-0
  GI50: > 100 µM (inactive)
A498
  GI50: > 100 µM (inactive)
A549
  GI50: > 100 µM (inactive)
ACHN
  GI50: > 100 µM (inactive)
CAKI-1
  GI50: > 100 µM (inactive)
CCRF-CEM
  GI50: > 100 µM (inactive)
COLO 205
  GI50: > 100 µM (inactive)
DLD-1
  GI50: > 100 µM (inactive)
DMS-114
  GI50: > 100 µM (inactive)
DMS-273
  GI50: > 100 µM (inactive)
EKVX
  GI50: > 100 µM (inactive)
HCC 2998
  GI50: > 100 µM (inactive)
HCT-116
  GI50: > 100 µM (inactive)
HCT-15
  GI50: > 100 µM
HL-60
  GI50: > 100 µM (inactive)
HOP-18
  GI50: > 100 µM (inactive)
HT-29
  GI50: > 100 µM (inactive)
IGROV-1
  GI50: > 100 µM (inactive)
K562
  GI50: > 100 µM (inactive)
KM-20L2
  GI50: > 100 µM (inactive)
KM12
  GI50: > 100 µM (inactive)
LOX IMVI
  GI50: > 100 µM (inactive)
LXFL 529
  GI50: 97.7 µM (inactive)
M14
  GI50: > 100 µM (inactive)
M19-MEL
  GI50: > 100 µM (inactive)
MOLT-4
  GI50: > 100 µM (inactive)
Malme-3M
  GI50: > 100 µM (inactive)
NCI-H226
  GI50: > 100 µM (inactive)
NCI-H23
  GI50: > 100 µM (inactive)
NCI-H460
  GI50: > 100 µM (inactive)
OVCAR-3
  GI50: > 100 µM (inactive)
OVCAR-4
  GI50: 31.9 µM (inactive)
OVCAR-5
  GI50: > 100 µM (inactive)
OVCAR-8
  GI50: > 100 µM (inactive)
RPMI-8226
  GI50: > 100 µM (inactive)
RXF 393
  GI50: > 100 µM (inactive)
SF-268
  GI50: > 100 µM (inactive)
SF-295
  GI50: > 100 µM (inactive)
SF-539
  GI50: > 100 µM (inactive)
SK-MEL-28
  GI50: > 100 µM (inactive)
SK-MEL-2
  GI50: > 100 µM (inactive)
SK-MEL-5
  GI50: > 100 µM (inactive)
SK-OV-3
  GI50: > 100 µM (inactive)
SN12C
  GI50: > 100 µM (inactive)
SNB-19
  GI50: > 100 µM (inactive)
SNB-75
  GI50: 99.3 µM (inactive)
SNB-78
  GI50: > 100 µM (inactive)
SW-620
  GI50: > 100 µM (inactive)
TK-10
  GI50: > 100 µM (inactive)
U-251
  GI50: > 100 µM (inactive)
UACC-257
  GI50: > 100 µM (inactive)
UACC-62
  GI50: > 100 µM (inactive)
UO-31
  GI50: > 100 µM (inactive)
XF498
  GI50: > 100 µM (inactive)

## CCOC(=O)/C(C#N)=C\C=C1/C=CN=C2NCCN21
786-0
  GI50: > 100 µM (inactive)
A549
  GI50: > 100 µM (inactive)
ACHN
  GI50: 80.9 µM (inactive)
CAKI-1
  GI50: > 100 µM (inactive)
CCRF-CEM
  GI50: > 100 µM (inactive)
COLO 205
  GI50: > 100 µM (inactive)
DLD-1
  GI50: > 100 µM (inactive)
DMS-114
  GI50: > 100 µM (inactive)
DMS-273
  GI50: > 100 µM (inactive)
EKVX
  GI50: > 100 µM (inactive)
HCC 2998
  GI50: > 100 µM (inactive)
HCT-116
  GI50: > 100 µM (inactive)
HCT-15
  GI50: > 100 µM
HL-60
  GI50: > 100 µM (inactive)
HOP-18
  GI50: > 100 µM (inactive)
HOP-62
  GI50: > 100 µM (inactive)
HT-29
  GI50: > 100 µM (inactive)
IGROV-1
  GI50: > 100 µM (inactive)
K562
  GI50: > 100 µM (inactive)
KM-20L2
  GI50: > 100 µM (inactive)
KM12
  GI50: > 100 µM (inactive)
LOX IMVI
  GI50: > 100 µM (inactive)
LXFL 529
  GI50: > 100 µM (inactive)
M14
  GI50: > 100 µM (inactive)
M19-MEL
  GI50: > 100 µM (inactive)
MOLT-4
  GI50: > 100 µM (inactive)
Malme-3M
  GI50: > 100 µM (inactive)
NCI-H226
  GI50: > 100 µM (inactive)
NCI-H23
  GI50: > 100 µM (inactive)
NCI-H460
  GI50: > 100 µM (inactive)
NCI-H522
  GI50: > 100 µM (inactive)
OVCAR-3
  GI50: > 100 µM (inactive)
OVCAR-4
  GI50: > 100 µM (inactive)
OVCAR-8
  GI50: > 100 µM (inactive)
RPMI-8226
  GI50: > 100 µM (inactive)
RXF 393
  GI50: 99.5 µM (inactive)
SF-268
  GI50: > 100 µM (inactive)
SF-295
  GI50: > 100 µM (inactive)
SF-539
  GI50: > 100 µM (inactive)
SK-MEL-28
  GI50: > 100 µM (inactive)
SK-MEL-2
  GI50: > 100 µM (inactive)
SK-MEL-5
  GI50: > 100 µM (inactive)
SK-OV-3
  GI50: > 100 µM (inactive)
SN12C
  GI50: > 100 µM (inactive)
SNB-19
  GI50: > 100 µM (inactive)
SNB-75
  GI50: 14.4 µM (inactive)
SNB-78
  GI50: > 100 µM (inactive)
SR
  GI50: > 100 µM (inactive)
SW-620
  GI50: > 100 µM (inactive)
TK-10
  GI50: > 100 µM (inactive)
U-251
  GI50: > 100 µM (inactive)
UACC-257
  GI50: > 100 µM (inactive)
UACC-62
  GI50: > 100 µM (inactive)
UO-31
  GI50: > 100 µM (inactive)
XF498
  GI50: > 100 µM (inactive)

## Cc1cc2c(cc1C)NC(=O)C(NC(=O)/C=C/c1ccccc1)C=N2 (centres undefined)
786-0
  GI50: 30.3 µM (inactive)
A498
  GI50: 37.2 µM (inactive)
A549
  GI50: 30.7 µM (inactive)
ACHN
  GI50: 41.9 µM (inactive)
CAKI-1
  GI50: 31.3 µM (inactive)
CCRF-CEM
  GI50: 3.56 µM (inactive)
COLO 205
  GI50: 18.1 µM (inactive)
DLD-1
  GI50: 28.2 µM (inactive)
DMS-114
  GI50: 12.3 µM (inactive)
DMS-273
  GI50: 29 µM (inactive)
EKVX
  GI50: > 100 µM (inactive)
HCC 2998
  GI50: 48.6 µM (inactive)
HCT-116
  GI50: 20.8 µM (inactive)
HCT-15
  GI50: 17.7 µM
HL-60
  GI50: 21.9 µM (inactive)
HOP-18
  GI50: 37.5 µM (inactive)
HOP-62
  GI50: > 100 µM (inactive)
IGROV-1
  GI50: 34.8 µM (inactive)
K562
  GI50: 22.5 µM (inactive)
KM-20L2
  GI50: 45.3 µM (inactive)
KM12
  GI50: 19.5 µM (inactive)
LOX IMVI
  GI50: 22.7 µM (inactive)
LXFL 529
  GI50: 27.9 µM (inactive)
M14
  GI50: 34 µM (inactive)
M19-MEL
  GI50: 33.3 µM (inactive)
MOLT-4
  GI50: 20.7 µM (inactive)
Malme-3M
  GI50: 35.9 µM (inactive)
NCI-H226
  GI50: 95.3 µM (inactive)
NCI-H460
  GI50: 30.8 µM (inactive)
NCI-H522
  GI50: 16.3 µM (inactive)
OVCAR-3
  GI50: 20.1 µM (inactive)
OVCAR-4
  GI50: 38.9 µM (inactive)
OVCAR-5
  GI50: > 100 µM (inactive)
OVCAR-8
  GI50: 38.2 µM (inactive)
RPMI-8226
  GI50: 25.5 µM (inactive)
RXF 393
  GI50: 16.1 µM (inactive)
SF-268
  GI50: 29.9 µM (inactive)
SF-295
  GI50: 50.8 µM (inactive)
SF-539
  GI50: 24.8 µM (inactive)
SK-MEL-28
  GI50: 72.3 µM (inactive)
SK-MEL-2
  GI50: 24.5 µM (inactive)
SK-MEL-5
  GI50: 29.9 µM (inactive)
SK-OV-3
  GI50: 74.8 µM (inactive)
SN12C
  GI50: 38.8 µM (inactive)
SNB-19
  GI50: 64.3 µM (inactive)
SNB-75
  GI50: 44.1 µM (inactive)
SNB-78
  GI50: 66.7 µM (inactive)
SR
  GI50: 20.8 µM (inactive)
SW-620
  GI50: 4.73 µM (inactive)
TK-10
  GI50: 50.6 µM (inactive)
U-251
  GI50: 23.9 µM (inactive)
UACC-257
  GI50: 24.3 µM (inactive)
UACC-62
  GI50: 34.8 µM (inactive)
UO-31
  GI50: 29.6 µM (inactive)
XF498
  GI50: 28 µM (inactive)
